According to the SangsterLogP compilation:

test: not given; conditions: not given

First: COc1cccc(N(C)C(=S)Oc2cccc(C(C)(C)C)c2)n1
Second: CN(C(=O)COc1nc2ccccc2s1)c1ccccc1
The logP of the first is higher: 5.18 for the first, 3.23 for the second.

Compared with `CC(C)(C)C(=O)c1ccccc1`, `CCC(C(N)=O)(C(N)=O)c1ccccc1` is lower in logP: 3 for the first, 0.13 for the second.

Compared with `COc1ccc2cc([C@H](C)C(=O)OCC(=O)N(CCO)CCO)ccc2c1`, `CC(C)=NOCCOC(=O)[C@@H](C)Oc1ccc(Oc2cnc3cc(Cl)ccc3n2)cc1` is higher in logP: 1.7 for the first, 4.6 for the second.

Compared with `Cc1ccccc1CO`, `C=CCSc1ccccc1` is higher in logP: 1.58 for the first, 3.51 for the second.

First: CC(C)CN(C)CC(C)C
Second: CC(C)SC(C)C
The logP of the first is lower: 2.34 for the first, 2.84 for the second.

Going from `O=C(O)CCC(=O)c1ccc(N2Cc3ccccc3C2=O)cc1` to `O=C(O)COc1ccc(N2Cc3ccccc3C2=O)cc1`, the logP rises from 1.92 to 3.58.

Going from `Cn1c(N)nc2cc(Cl)c(Cl)cc21` to `COC(=O)c1cc(Cl)ccc1N`, the logP rises from 2.98 to 3.3.

First: C=CCCC=C
Second: ClCC#CCCl
The logP of the first is higher: 2.87 for the first, 2.01 for the second.

First: COCCOc1ccccc1OCCOC
Second: CCCCOC
The logP of the first is lower: 1.12 for the first, 1.66 for the second.

First: CC1CN1C1=C(F)C(=O)C(N2CC2C)=C(F)C1=O (stereo not drawn)
Second: CCn1cc(C)c(=O)[nH]c1=O
The logP of the first is higher: 1.61 for the first, -0.15 for the second.

Compared with `O=c1n[n+]([O-])ccn1[C@@H]1O[C@H](CO)[C@@H](O)[C@H]1O`, `O=C(CCn1cnc([N+](=O)[O-])n1)NCCO` is higher in logP: -2.43 for the first, -1.32 for the second.

Going from `CCOc1cccnc1` to `Cc1ccncn1`, the logP falls from 1.44 to 0.16.

`COP(=O)(OC)OC(C)=CC(=O)N(C)C` and `COC(=O)CC(=O)OC` are within 0.2 log units of each other in logP: 0 for the first, -0.05 for the second.

Going from `COC(=O)C1=CCCN(C)C1` to `CNC(=O)Oc1cccc2c1OC(C)(C)O2`, the logP rises from 0.35 to 1.7.

Going from `O=[N+]([O-])c1cccc(SSc2cccc([N+](=O)[O-])c2)c1` to `COc1ccc([N+](=O)[O-])cn1`, the logP falls from 4.06 to 1.55.

Compared with `CN(C)c1ccc(C#N)cc1`, `COc1ccc(S(C)(=O)=O)cc1` is lower in logP: 2.2 for the first, 0.76 for the second.

Compared with `CCCCSP(=O)(SCCCC)SCCCC`, `CCOC(=O)CC(=O)C=Cc1ccc2c(c1)OCO2` is lower in logP: 3.23 for the first, 2.35 for the second.

Going from `CC(=O)Oc1ccc(N)cc1` to `Cc1cc(=O)cc(C)o1`, the logP falls from 0.45 to 0.1.

Compared with `Cc1nc(N(C)C)nc(OC(=O)N(C)C)c1C`, `C=C(C)CN(CC)c1c([N+](=O)[O-])cc(C(F)(F)F)cc1[N+](=O)[O-]` is higher in logP: 1.7 for the first, 5.11 for the second.

`O=S1(=O)OCC2C(CO1)C1(Cl)C(Cl)=C(Cl)C2(Cl)C1(Cl)Cl` (stereo not drawn) showed a logP of 3.66.

same assay, conditions: pH 1.0

Compared with `O=C(O)c1ccccc1N1C(=O)CCC1=O`, `O=C(O)c1c(Cl)cccc1Cl` is higher in logD: 1.55 for the first, 2.23 for the second.

same assay, conditions: pH 4.0

`CC(=NNc1ccc([N+](=O)[O-])cc1[N+](=O)[O-])C(F)(F)F` showed a logD of 3.3.

same assay, conditions: pH 5.0

For `CCOC(=O)CCl`, the logD was 0.94.

same assay, conditions: pH 7.0

For `Clc1ccc(C2(Cn3cncn3)OCC3(CCC4OC4C3)CO2)c(Cl)c1` (stereo not drawn), the logD was 1.87.

same assay, conditions: pH 7.4

Compared with `Cc1cc(=O)[nH]c(=O)[nH]1`, `Cc1nc(C)c([N+](=O)[O-])[nH]1` is higher in logD: -0.77 for the first, 0.43 for the second.

Going from `CN1C(=O)CN=C(c2ccccc2F)c2c(F)cccc21` to `Cn1cc(-c2ccccc2)c(=O)c(-c2cccc(C(F)(F)F)c2)c1`, the logD rises from 2.41 to 3.16.

Compared with `Cn1c([N+](=O)[O-])cnc1COc1ccc(Cl)cc1`, `Cn1c(N)nc2c3nccnc3ccc21` is lower in logD: 1.8 for the first, 1.01 for the second.

`CN(C(F)(F)F)S(=O)(=O)CCCn1ccnc1C=NO` gave a logD of 1.77.

same assay, conditions: pH 13.0

First: COc1c(C)ccc(Cc2cnc(N)nc2N)c1C(C)(C)C
Second: COc1ccc(Oc2cnc(N)nc2N)c(OC)c1OC
The logD of the first is higher: 3.05 for the first, 0.9 for the second.

Work on `CCOC(CC)(OCC)OCC` yielded a logD of 1.97.

test: not given; conditions: not given; remark: another data set of the same source

`FC(F)(F)C(=NOCC1OCCO1)c1ccc(Cl)cc1` and `OC1(c2ccc(Cl)cc2)CCN(CCCC2(c3ccc(F)cc3)OCCO2)CC1` are within 0.2 log units of each other in logP: 3.9 for the first, 3.84 for the second.

First: OCCN1CCN(C2CC(c3ccc(F)cc3)c3ccccc32)CC1 (stereo not drawn)
Second: Cc1ccc2c(c1)C(N1CCN(CCO)CC1)CC2c1ccc(F)cc1 (stereo not drawn)
The logP of the first is lower: 2.95 for the first, 3.57 for the second.

`CNc1nc(Cl)c(SC)c(N2CCN(C)CC2)n1` and `Cc1cc2c(s1)Nc1ccc(F)cc1N=C2N1CCN(C)CC1` are within 0.2 log units of each other in logP: 2.99 for the first, 2.98 for the second.

First: c1ccc(Cn2cnnn2)cc1
Second: c1ccc(Cn2ncnn2)cc1
The logP of the first is higher: 1.36 for the first, 1.03 for the second.

First: CCN1CCCC1CNC(=O)c1cc(N(C)S(C)(=O)=O)ccc1OC (stereo not drawn)
Second: CCN1CCCC1CNC(=O)c1cc(N(C)S(C)(=O)=O)c(Cl)cc1OC (stereo not drawn)
The logP of the first is lower: 2.29 for the first, 2.62 for the second.

Going from `C1=Cc2ccc3c4c(ccc(c24)C1)-c1ccccc1-3` to `N=C1C=CC(=C(c2ccc(N)cc2)c2ccc(N)cc2)C=C1`, the logP falls from 5.78 to -0.21.

First: OCCN1CCN(CCCC2c3ccc(F)cc3Sc3ccc(C(F)(F)F)cc32)CC1 (stereo not drawn)
Second: OCCC1CCN(CC/C=C2\c3ccc(F)cc3Sc3ccc(C(F)(F)F)cc32)CC1
The logP of the first is higher: 4.47 for the first, 4.09 for the second.

First: O=C1NC(=O)[C@@]2(CCOc3ccc(F)cc32)N1
Second: O=C(O)Cc1c[nH]c2ccc(O)cc12
The logP of the first is lower: 0.78 for the first, 1.17 for the second.

First: CC(=O)c1c(C)n(C)c2ccccc12
Second: O=C(O)Cc1nn(Cc2ccc(Br)cc2F)c(=O)c2ccccc12
The logP of the first is lower: 2.03 for the first, 2.68 for the second.

`c1ccc(NCCCOc2cccc(CN3CCCCC3)c2)nc1` and `O=c1[nH]c2ccccc2n1C1CCN(CCOc2ccccc2)CC1` are within 0.2 log units of each other in logP: 4.29 for the first, 4.18 for the second.

First: O=C(O)Cc1nn(Cc2nc3cc(F)ccc3s2)c(=O)c2ccccc12
Second: CN1C(C(=O)Nc2ccccn2)=C(O)c2sc(Cl)cc2S1(=O)=O
The logP of the first is lower: 1.86 for the first, 2.62 for the second.

Going from `CSc1ccc2c(c1)C(N1CCN(CCO)CC1)CC2c1ccc(F)cc1` (stereo not drawn) to `OCCN1CCN(C2CC(c3ccc(F)cc3)c3ccc(F)cc32)CC1` (stereo not drawn), the logP falls from 3.8 to 3.3.

First: CC(C)=CC1C(C(=O)OCc2ccc(C)cc2C)C1(C)C (stereo not drawn)
Second: CCN1CCC[C@H]1CNC(=O)c1cc(I)ccc1OC
The logP of the first is higher: 4.5 for the first, 3.23 for the second.

`c1ccc(Cn2cccc2)cc1` and `COc1ccc(S(N)(=O)=O)cc1C(=O)NC1CC2CCCC1N2Cc1ccccc1` (stereo not drawn) are within 0.2 log units of each other in logP: 2.71 for the first, 2.88 for the second.

Compared with `CCN1CCCC1CNC(=O)c1cc(NS(N)(=O)=O)ccc1OC` (stereo not drawn), `CCN1CCCC1CNC(=O)c1cc(NS(N)(=O)=O)c(Cl)cc1OC` (stereo not drawn) is higher in logP: 2.02 for the first, 2.66 for the second.

Compared with `CC1(C)CN(CCN2CCN(c3cccc(Cl)c3)C2=O)C1`, `O=C1NCN(c2ccccc2)C12CCN(CCCC(c1ccc(F)cc1)c1ccc(F)cc1)CC2` is higher in logP: 3.91 for the first, 5.86 for the second.

Going from `C#CCNS(=O)(=O)c1ccc(OC)c(C(=O)NCC2CCCN2CC)c1` (stereo not drawn) to `C#CC(C)(C)NS(=O)(=O)c1ccc(OC)c(C(=O)NCC2CCCN2CC)c1` (stereo not drawn), the logP rises from 2.42 to 2.8.

First: CCc1c(C)[nH]c2c1C(=O)C1CN(C)CCC1C2 (stereo not drawn)
Second: CCCN1CCCC1CNC(=O)c1cc(S(N)(=O)=O)ccc1OC (stereo not drawn)
The logP of the first is lower: 1.78 for the first, 2.06 for the second.

With `COc1cc(Cc2cnc(N)nc2N)cc(Br)c1OC` the logP was 2.23.

test: method code G, from Hansch, C., Leo, A., & Hoekman, D. (1995). Exploring QSAR: hydrophobic, electronic, and steric constants (Vol. 2). Washington, DC: American Chemical Society.; conditions: not given

Compared with `CCC(=O)C(Cc1ccc(OC)cc1)S(=O)(=O)c1ccc(C)cc1` (stereo not drawn), `CCC(=O)C(Cc1ccc(C)cc1)S(=O)(=O)c1ccc(C)cc1` (stereo not drawn) is higher in logP: 2.47 for the first, 3.3 for the second.

`CCC(=O)C(Cc1ccc(Cl)cc1)S(=O)(=O)c1ccccc1` (stereo not drawn) and `CCC(=O)C(Cc1ccc(C)cc1)S(=O)(=O)c1ccccc1` (stereo not drawn) are within 0.2 log units of each other in logP: 2.69 for the first, 2.7 for the second.

Going from `CCC(=O)C(Cc1ccccc1)S(=O)(=O)c1ccccc1` (stereo not drawn) to `CCC(=O)C(Cc1ccccc1)S(=O)(=O)c1ccc(C)cc1` (stereo not drawn), the logP rises from 1.82 to 2.45.

In the case of `CCC(=O)C(Cc1ccc(Cl)cc1)S(=O)(=O)c1ccc(C)cc1` (stereo not drawn), the logP is reported as 3.43.

test: method code SF-AS, from Hansch, C., Leo, A., & Hoekman, D. (1995). Exploring QSAR: hydrophobic, electronic, and steric constants (Vol. 2). Washington, DC: American Chemical Society.; conditions: not given

Going from `c1ccc2c(c1)OCCOCCOc1ccccc1OCCO2` to `CC(=O)c1ccc2c(c1)OCCOCCOCCOCCOCCO2`, the logP falls from 2.21 to -0.05.

First: CC(C)(C)c1ccc2c(c1)OCCOCCOCCOCCOc1cc(C(C)(C)C)ccc1OCCOCCOCCOCCO2
Second: CCc1cccc2c1OCCOCCOCCOCCOCCO2
The logP of the first is higher: 3.32 for the first, 0.98 for the second.

same assay, conditions: pH 2.1

`O=C(O)C[N+]1([O-])CCN(C(=O)Cn2c(=O)sc3ccc(Cl)cc32)CC1` gave a logD of 0.21.

same assay, conditions: pH 6.4

Compound `CC1=NN(CCOc2ccc3ccccc3c2)C(=O)C1` has a logD of 2.74.

same assay, conditions: pH 7.2

Going from `N#CC(C#N)=NNc1ccccc1Br` to `Cc1ccccc1NN=C(C#N)C#N`, the logD falls from 3.11 to 2.38.

First: N#CC(C#N)=NNc1ccccc1C(F)(F)F
Second: N#CC(C#N)=NNc1cccc(Cl)c1Cl
The logD of the first is higher: 4.2 for the first, 3.85 for the second.

With `Cc1ccc(NN=C(C#N)C#N)c([N+](=O)[O-])c1` the logD was 2.5.

same assay, conditions: pH 7.4

`O=C(NP(=O)(N1CC1)N1CC1)c1ccc(Br)cc1` and `O=C(NP(=O)(N1CC1)N1CC1)c1ccccc1I` are within 0.2 log units of each other in logD: 0.97 for the first, 1.05 for the second.

Work on `O=C(Cn1c(=O)sc2ccc(Cl)cc21)N1CC[N+]([O-])(CCO)CC1` yielded a logD of 0.05.

test: method code SF-HPLC, from Hansch, C., Leo, A., & Hoekman, D. (1995). Exploring QSAR: hydrophobic, electronic, and steric constants (Vol. 2). Washington, DC: American Chemical Society.; conditions: pH 7.4

In the case of `COc1ccc2cc(C(C)C(=O)OC(O)C(=O)N(C)CCO)ccc2c1` (stereo not drawn), the logD is reported as 2.01.
